Results from patent US4999436A, “Aryl-substituted thiophene 3-ols, derivatives and analogs useful as lipoxgenase inhibitors” (Merck & Co., Inc., priority 1989, dated 1991).
Values joined by “and” are separate entries in the source; they are usually repeats but may differ in a detail not shown here. Equal values may be shown once.

Assays:
5-lipoxygenase = target: T1, 5-lipoxygenase (Rattus norvegicus, UniProt P12527); assay: PMN5LO assay: inhibition of LTB4 production in A23187-stimulated rat peritoneal PMN (RIA); type: cell-based; details: for IC50: estimated concentration required for 50% inhibition
T1 construct: endogenous in cells; host or cells: casein-elicited peritoneal polymorphonuclear leukocytes of male Sprague-Dawley rats
T1 sequence (P12527 1-673): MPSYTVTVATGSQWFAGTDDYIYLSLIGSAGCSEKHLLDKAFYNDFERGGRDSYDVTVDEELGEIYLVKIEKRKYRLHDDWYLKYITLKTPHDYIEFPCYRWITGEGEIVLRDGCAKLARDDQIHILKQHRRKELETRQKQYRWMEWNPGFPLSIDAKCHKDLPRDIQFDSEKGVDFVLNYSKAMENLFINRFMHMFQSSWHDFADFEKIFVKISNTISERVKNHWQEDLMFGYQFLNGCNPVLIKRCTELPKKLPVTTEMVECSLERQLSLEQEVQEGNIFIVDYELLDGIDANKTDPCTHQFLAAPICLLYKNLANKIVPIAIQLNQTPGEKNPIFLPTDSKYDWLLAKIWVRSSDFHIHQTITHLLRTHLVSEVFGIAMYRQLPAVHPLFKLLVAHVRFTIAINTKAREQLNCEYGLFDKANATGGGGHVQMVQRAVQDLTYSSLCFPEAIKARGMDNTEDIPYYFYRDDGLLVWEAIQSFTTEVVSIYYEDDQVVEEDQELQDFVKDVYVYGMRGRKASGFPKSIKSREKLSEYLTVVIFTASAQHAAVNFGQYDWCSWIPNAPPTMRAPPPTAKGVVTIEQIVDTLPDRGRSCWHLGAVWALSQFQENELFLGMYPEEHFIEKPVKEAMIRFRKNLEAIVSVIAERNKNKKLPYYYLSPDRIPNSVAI
Description: (§1) Two screening methods were employed for the purposes of evaluating the biological activities of the compounds of the present invention. The PMN5LO assay is a direct measure of the capacity to inhibit 5-lipoxygenase. The second protocol, RSVM-CO, is a method of determining inhibition of cyclooxygenase enzyme activity and as such it serves as a negative control.
Elicition of Rat Peritoneal polymorphonuclear leukoytes (PMN)
Male Sprague-Dawley rats (about 350 grams) were injected intraperitoneally the day before use with 8 ml of 12% sodium caseinate. The next day the animals were killed by CO2 asphyxiation and the peritoneal cavity lavaged twice with 20 ml of Hanks balanced salts containing 15 mM HEPES (pH 7.4), 1.4 mM Ca^++ and 0.7 mM Mg^++ (Hepes-Hanks). The suspensions were filtered through plastic mesh and centrifuged at […] for 5 minutes. The cells were resuspended in 50 ml Hepes-Hanks and recentrifuged. The PMN pellets were combined and suspended at 1.25×10^7 cells/ml.
The cell suspension was then diluted 1:10, preincubated 5 minutes at 37° C. and distributed in 200 μl aliquots in the wells of 96 well microtiter plates. The wells had previously received samples of the compounds of the present invention, controls, etc., in 25 μl of 0.001% fatty acidfree BSA in Hepes-Hanks. The plates were incubated 2 minutes at 37° C. and then the cells were stimulated to produce LTB4 by the addition of 25 μl of 100 μM calcium ionophore, designated A23187. After 4 minutes at 37° C. the plates were frozen in dry ice.
Radioimmunoassay (RIA) of LTB4
The frozen plates were thawed to 4° C. and 25 μl aliquots removed to V well plates. Antibody to LTB4 (50 μl) was added and, after 15 minutes at room temperature, 50 μl of ^3 H-LTB4 was added and the plates were stored overnight at 4° C. to allow equilibration. The next day the "free" 3H-LTB4 was removed by adsorption to dextran coated charcoal [90 μl per well of a 4% charcoal suspension with 0.25% Dextran T-70 in 10 mM potassium phosphate (pH 7.3) containing lmM EDTA and 0.25 mM thimerasol] during a 10 minute ice temperature incubation. The charcoal was removed by a 10 minute centrifugation at 200 sg. Aliquots of the supernatant were counted in a Packard 460, analyzed in a Masscomp computer and the data drawn up as % inhibition of LTB4 production.

cyclooxygenase = target: T2, cyclooxygenase (Ovis aries, UniProt P05979); assay: RSVM-CO: Ram Seminal Vesicle Microsomal Cyclooxygenase assay; type: biochemical; details: for inhibition at 0.01 µg/mL: 0.01 μg/ml; for inhibition at 0.1 µg/mL: 0.1 μg/ml; for inhibition at 1 µg/mL: 1 μg/ml; for inhibition at 10 µg/mL: 10 μg/ml
T2 construct: Ram seminal vesicular glands were trimmed of fat; from tissue; host or cells: ram seminal vesicular glands, microsomal pellet (105K xg)
T2 sequence (P05979 25-600): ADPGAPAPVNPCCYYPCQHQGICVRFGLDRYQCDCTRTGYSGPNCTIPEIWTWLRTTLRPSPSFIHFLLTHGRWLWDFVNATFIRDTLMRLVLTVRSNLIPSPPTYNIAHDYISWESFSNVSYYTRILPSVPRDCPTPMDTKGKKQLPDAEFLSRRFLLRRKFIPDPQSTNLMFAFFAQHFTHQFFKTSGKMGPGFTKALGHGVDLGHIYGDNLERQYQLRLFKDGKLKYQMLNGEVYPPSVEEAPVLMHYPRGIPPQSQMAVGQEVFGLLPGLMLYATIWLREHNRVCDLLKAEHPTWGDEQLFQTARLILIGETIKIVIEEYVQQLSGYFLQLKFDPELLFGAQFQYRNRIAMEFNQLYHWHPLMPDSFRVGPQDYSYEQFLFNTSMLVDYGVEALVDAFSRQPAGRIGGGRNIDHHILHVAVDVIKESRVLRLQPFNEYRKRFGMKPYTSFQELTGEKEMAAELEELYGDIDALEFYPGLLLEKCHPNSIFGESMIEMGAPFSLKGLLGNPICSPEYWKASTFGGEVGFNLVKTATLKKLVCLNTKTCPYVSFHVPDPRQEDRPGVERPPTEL
Excerpt: as §1
B. Ram Seminal Vesicle Microsomal Cyclooxygenase (RSVM-CO) Assay Protocol
Ram seminal vesicular glands were trimmed of fat, 50 grams diced into 250 mls ice cold 0.1 M potassium phosphate (pH 7.6) buffer and homogenized using a Brinkman Polytron. The suspension was centrifuged 10 minutes at […] (4° C.) and the supernatant filtered through two cheesecloth layers. The filtrate was centrifuged 160 minutes at 105K xg, the supernatant thereof discarded, and the pellet surface rinsed with a small volume of buffer. The pellets were combined in a small volume, briefly homogenized with the Polytron and frozen in 0.5 ml aliquots at -80° C. The protein concentration was about 50 mg/ml.
The thawed enzyme was diluted 1:63 with 0.125 M Na EDTA (pH 8.0) containing 50 μg/ml BSA. A substrate-cofactor premix was prepared with 66 μM ^14 C-arachidonic acid (about 20K cpm/12.5 μl) in 500 μl 0.125 M Na EDTA (pH 8.0) plus 10 μl 50 mM hydroquinone and 10 μl 200 mM glutathione. To each sample well in the 96 well plate, agents dissolved in 0.5 μ DMSO were added, followed by 12.5 μl of the diluted enzyme. After a 4 minute preincubation at room temperature, 12.5 μl of the substrate-cofactor mix was added to start the reaction. The reaction was terminated after 20 minutes at room temperature by adding 25 μl of methanol containing 200 μg PGE2 and 400 μg AA per ml.
The entire reaction mixture was spotted onto a preadsorbent silica gel GF thin layer plate and, after air drying 45 minutes, developed 12 cm in ethyl acetate:glacial acetic acid (99:1).
The developed lanes were scanned for the distribution of radiolabel using a Bioscan Imaging Detector and the integrated peaks compared to standards and controls yielding % inhibition.

CC(=O)Oc1cc(-c2ccccc2)sc1-c1ccccc1 [Compound 3]
PMN5LO % inhibition (5-lipoxygenase; 0.012 μg/ml): 38% | inhibition at 0.012 µg/mL (5-lipoxygenase; 0.012 μg/ml): 27% | PMN5LO % inhibition (5-lipoxygenase; 0.037 μg/ml): 56% | inhibition at 0.037 µg/mL (5-lipoxygenase; 0.037 μg/ml): 57% | inhibition at 0.05 µg/mL (5-lipoxygenase; 0.05 μg/ml): 100% | inhibition at 0.11 µg/mL (5-lipoxygenase; 0.11 μg/ml): 100% | IC50 (5-lipoxygenase): 88 nM and 74 nM | inhibition at 0.01 µg/mL (cyclooxygenase): 13% | inhibition at 0.1 µg/mL (cyclooxygenase): 13% | inhibition at 1 µg/mL (cyclooxygenase): 8% | inhibition at 10 µg/mL (cyclooxygenase): 29%

COc1ccc(-c2sc(-c3ccccc3)cc2OC(C)=O)cc1 [Compound 14, 3-Acetoxy-2-(4'-methoxyphenyl)-5-phenylthiophene]
PMN5LO % inhibition (5-lipoxygenase; 0.012 μg/ml): 12% | inhibition at 0.012 µg/mL (5-lipoxygenase; 0.012 μg/ml): 24% | PMN5LO % inhibition (5-lipoxygenase; 0.11 μg/ml): 91% and 46% | PMN5LO % inhibition (5-lipoxygenase; 0.33 μg/ml): 85% | inhibition at 0.33 µg/mL (5-lipoxygenase; 0.33 μg/ml): 100% | PMN5LO % inhibition (5-lipoxygenase; 1 μg/ml): 80% | inhibition at 1 µg/mL (5-lipoxygenase; 1 μg/ml): 100% | IC50 (5-lipoxygenase): 80 nM | inhibition at 0.1 µg/mL (cyclooxygenase): 0%

CC(=O)Oc1cc(-c2ccccc2)sc1-c1cccnc1 [Compound 16, 3-Acetoxy-2-(3'-pyridyl)-5-phenylthiophene]
PMN5LO % inhibition (5-lipoxygenase; 0.33 μg/ml): 84% | inhibition at 0.33 µg/mL (5-lipoxygenase; 0.33 μg/ml): 94% | PMN5LO % inhibition (5-lipoxygenase; 1 μg/ml): 88% | inhibition at 1 µg/mL (5-lipoxygenase; 1 μg/ml): 100% | IC50 (5-lipoxygenase): 230 nM | inhibition at 0.1 µg/mL (cyclooxygenase): 0% | inhibition at 1 µg/mL (cyclooxygenase): 0%

Oc1cc(-c2ccccc2)sc1-c1ccccc1 [Compound 4, 3-Hydroxy-2,5-diphenylthiophene]
PMN5LO % inhibition (5-lipoxygenase; 0.012 μg/ml): 11% | inhibition at 0.012 µg/mL (5-lipoxygenase; 0.012 μg/ml): 17% | PMN5LO % inhibition (5-lipoxygenase; 0.11 μg/ml): 97% and 70% | PMN5LO % inhibition (5-lipoxygenase; 0.33 μg/ml): 85% | inhibition at 0.33 µg/mL (5-lipoxygenase; 0.33 μg/ml): 98% | PMN5LO % inhibition (5-lipoxygenase; 1 μg/ml): 88% | inhibition at 1 µg/mL (5-lipoxygenase; 1 μg/ml): 99% | IC50 (5-lipoxygenase): 110 nM | inhibition at 0.1 µg/mL (cyclooxygenase): 24% | inhibition at 0.4 µg/mL (cyclooxygenase; 0.4 μg/ml): 18% | inhibition at 1 µg/mL (cyclooxygenase): 6% | inhibition at 2 µg/mL (cyclooxygenase; 2 μg/ml): 46% | inhibition at 10 µg/mL (cyclooxygenase): 92%

COCOc1cc(-c2ccccc2)sc1-c1ccccc1 [Compound 12, 2,5-Diphenyl-3-(methoxymethoxy)-thiophene]
PMN5LO % inhibition (5-lipoxygenase; 0.11 μg/ml): 40% | inhibition at 0.11 µg/mL (5-lipoxygenase; 0.11 μg/ml): 31% | PMN5LO % inhibition (5-lipoxygenase; 0.33 μg/ml): 84% | inhibition at 0.33 µg/mL (5-lipoxygenase; 0.33 μg/ml): 74% | IC50 (5-lipoxygenase): 580 nM and 350 nM | inhibition at 0.01 µg/mL (cyclooxygenase): 28% | inhibition at 0.1 µg/mL (cyclooxygenase): 0% | inhibition at 1 µg/mL (cyclooxygenase): 100%

Oc1c(-c2ccccc2)sc(-c2ccccc2)c1-c1ccccc1 [Compound 2, 3-Hydroxy-2,4,5-triphenylthiophene]
inhibition at 0.012 µg/mL (5-lipoxygenase; 0.012 μg/ml): 22% | inhibition at 0.037 µg/mL (5-lipoxygenase; 0.037 μg/ml): 14% | inhibition at 0.11 µg/mL (5-lipoxygenase; 0.11 μg/ml): 0% | inhibition at 0.3 µg/mL (5-lipoxygenase; 0.3 μg/ml): 0% | inhibition at 1 µg/mL (5-lipoxygenase; 1 μg/ml): 53% | inhibition at 10 µg/mL (5-lipoxygenase; 10 μg/ml): 95% | IC50 (5-lipoxygenase): ~3000 nM | inhibition at 10 µg/mL (cyclooxygenase): 23%

COCC(=O)Oc1cc(-c2ccccc2)sc1-c1ccccc1 [Compound 10]
inhibition at 0.012 µg/mL (5-lipoxygenase; 0.012 μg/ml): 0% | PMN5LO % inhibition (5-lipoxygenase; 0.037 μg/ml): 28% and 51% | PMN5LO % inhibition (5-lipoxygenase; 0.11 μg/ml): 73% | inhibition at 0.33 µg/mL (5-lipoxygenase; 0.33 μg/ml): 100% | PMN5LO % inhibition (5-lipoxygenase; 1 μg/ml): 58% | IC50 (5-lipoxygenase): 200 nM | IC50 (5-lipoxygenase; unit inferred): 110 nM | inhibition at 0.1 µg/mL (cyclooxygenase): 60%

CC(=O)Oc1cc(-c2cccs2)sc1-c1ccccc1
PMN5LO % inhibition (5-lipoxygenase; 0.11 μg/ml): 51% and 100% | PMN5LO % inhibition (5-lipoxygenase; 0.33 μg/ml): 52% and 100% | PMN5LO % inhibition (5-lipoxygenase; 1 μg/ml): 74% and 100% | inhibition at 0.01 µg/mL (cyclooxygenase): 0% | inhibition at 0.1 µg/mL (cyclooxygenase): 0% | inhibition at 1 µg/mL (cyclooxygenase): 0%

COc1ccc(-c2sc3c(c2OC(C)=O)CCCC3)cc1
PMN5LO % inhibition (5-lipoxygenase; 0.33 μg/ml): 88% | inhibition at 0.33 µg/mL (5-lipoxygenase; 0.33 μg/ml): 85% | PMN5LO % inhibition (5-lipoxygenase; 1 μg/ml): 97% | inhibition at 1 µg/mL (5-lipoxygenase; 1 μg/ml): 100% | IC50 (5-lipoxygenase): 650 nM | IC50 (5-lipoxygenase; unit inferred): 380 nM | inhibition at 0.1 µg/mL (cyclooxygenase): 100% | inhibition at 1 µg/mL (cyclooxygenase): 11%

CC(=O)Oc1c(-c2ccccc2)sc(-c2ccccc2)c1-c1ccccc1 [Compound 7]
PMN5LO % inhibition (5-lipoxygenase; 1 μg/ml): 10% and 0% | IC50 (5-lipoxygenase): > 3000 nM | inhibition at 0.01 µg/mL (cyclooxygenase): 0% | inhibition at 0.1 µg/mL (cyclooxygenase): 0% | inhibition at 1 µg/mL (cyclooxygenase): 12% | inhibition at 5 µg/mL (cyclooxygenase; 5 μg/ml): 76%

CC(=O)Oc1cscc1-c1ccccc1 [Compound 15, 3-Acetoxy-4-phenylthiophene]
inhibition at 0.012 µg/mL (5-lipoxygenase; 0.012 μg/ml): 9% | inhibition at 0.037 µg/mL (5-lipoxygenase; 0.037 μg/ml): 0% | inhibition at 0.11 µg/mL (5-lipoxygenase; 0.11 μg/ml): 0% | inhibition at 0.33 µg/mL (5-lipoxygenase; 0.33 μg/ml): 0% | inhibition at 1 µg/mL (5-lipoxygenase; 1 μg/ml): 10% | inhibition at 0.1 µg/mL (cyclooxygenase): 0% | inhibition at 1 µg/mL (cyclooxygenase): 0%
